Laboratory results from ChEMBL document CHEMBL2331174, “Inhibition of notch pathway signaling: a one compound mission to treat cancer” (ACS Med Chem Lett, 2013).

Key:
[1] = Inhibition of gamma-secretase mediated cleavage of Notch 1 in human MOLT-4 cells assessed as nuclear accumulation of Notch 1 intracellular domain (N1ICD) after 24 hrs by ELISA; assay type: cell-based; conditions: MOLT-4, 24 h
[2] = Inhibition of gamma-secretase mediated cleavage of Notch 1 in human MOLT-3 cells assessed as nuclear accumulation of Notch 1 intracellular domain (N1ICD) after 24 hrs by ELISA; assay type: cell-based; conditions: MOLT-3, 24 h
[3] = Inhibition of gamma-secretase mediated cleavage of Notch 1 in human Jurkat cells assessed as nuclear accumulation of Notch 1 intracellular domain (N1ICD) after 24 hrs by ELISA; assay type: cell-based
[4] = Inhibition of gamma-secretase mediated cleavage of Notch 1 in human K562 cells assessed as nuclear accumulation of Notch 1 intracellular domain (N1ICD) after 24 hrs by ELISA; assay type: cell-based; conditions: K562, 24 h
[5] = Inhibition of gamma-secretase mediated cleavage of Notch 1 in human SUP-T1 cells assessed as nuclear accumulation of Notch 1 intracellular domain (N1ICD) after 24 hrs by ELISA; assay type: cell-based; conditions: SUP-T1, 24 h
[6] = Inhibition of gamma-secretase mediated cleavage of Notch 1 in human CCRF-CEM cells assessed as nuclear accumulation of Notch 1 intracellular domain (N1ICD) after 24 hrs by ELISA; assay type: cell-based
[7] = Inhibition of gamma-secretase mediated cleavage of Notch 1 in human U-87-MG cells assessed as nuclear accumulation of Notch 1 intracellular domain (N1ICD) after 24 hrs by ELISA; assay type: cell-based, U-87MG ATCC
[8] = Inhibition of gamma-secretase mediated cleavage of Notch 1 in human MDA-MB-231 cells assessed as nuclear accumulation of Notch 1 intracellular domain (N1ICD) after 24 hrs by ELISA; assay type: cell-based; conditions: MDA-MB-231, 24 h
[9] = Inhibition of gamma-secretase mediated cleavage of Notch 1 in human DLD1 cells assessed as nuclear accumulation of Notch 1 intracellular domain (N1ICD) after 24 hrs by ELISA; assay type: cell-based; conditions: DLD-1, 24 h
[10] = Inhibition of gamma-secretase mediated cleavage of Notch 1 in human HCT 116 cells assessed as nuclear accumulation of Notch 1 intracellular domain (N1ICD) after 24 hrs by ELISA; assay type: cell-based; conditions: HCT-116, 24 h
[11] = Inhibition of gamma-secretase mediated cleavage of Notch 1 in human HEL 92.1.7 cells assessed as nuclear accumulation of Notch 1 intracellular domain (N1ICD) after 24 hrs by ELISA; assay type: cell-based; conditions: HEL 92.1.7, 24 h
[12] = Inhibition of gamma-secretase mediated cleavage of Notch 1 in human A375 cells assessed as nuclear accumulation of Notch 1 intracellular domain (N1ICD) after 24 hrs by ELISA; assay type: cell-based; conditions: A-375, 24 h
[13] = Inhibition of gamma-secretase mediated cleavage of Notch 1 in human SW480 cells assessed as nuclear accumulation of Notch 1 intracellular domain (N1ICD) after 24 hrs by ELISA; assay type: cell-based; conditions: SW480, 24 h
[14] = Inhibition of gamma-secretase mediated cleavage of Notch 1 in human BxPC3 cells assessed as nuclear accumulation of Notch 1 intracellular domain (N1ICD) after 24 hrs by ELISA; assay type: cell-based; conditions: BXPC-3, 24 h
[15] = Inhibition of gamma-secretase mediated cleavage of Notch 1 in human MIAPaCa2 cells assessed as nuclear accumulation of Notch 1 intracellular domain (N1ICD) after 24 hrs by ELISA; assay type: cell-based; conditions: MIA PaCa-2, 24 h
[16] = Inhibition of gamma-secretase mediated cleavage of Notch 1 in human A2780 cells assessed as nuclear accumulation of Notch 1 intracellular domain (N1ICD) after 24 hrs by ELISA; assay type: cell-based; conditions: A2780, 24 h
[17] = Inhibition of gamma-secretase mediated cleavage of transfected mouse Notch 1 (1703-2183) harboring N-terminal 23 aminoacid signal peptide sequence in human HEK293deltaE12 cells assessed as nuclear accumulation of Notch 1 intracellular domain (N1ICD) after 24 hrs by fluorescence cellular imaging analysis; assay type: cell-based

Structure (SMILES): C[C@H](NC(=O)CCC(F)(F)F)C(=O)N[C@@H]1C(=O)N(CCO)c2ncccc2-c2ccccc21 [CRENIGACESTAT]
- IC50 [1]: 0.74 nM
- IC50 [2]: 0.61 nM
- IC50 [3]: 5.95 nM
- IC50 [4]: 0.74 nM
- IC50 [5]: 1.24 nM
- IC50 [6]: 0.76 nM
- IC50 [7]: 0.28 nM
- IC50 [8]: 0.5 nM
- IC50 [9]: 0.98 nM
- IC50 [10]: 0.72 nM
- IC50 [11]: 0.23 nM
- IC50 [12]: 0.48 nM
- IC50 [13]: 0.1 nM
- IC50 [14]: 0.39 nM
- IC50 [15]: 0.71 nM
- IC50 [16]: 1.03 nM
- IC50 [17]: 0.41 nM
